Converted amounts (≈) assume the structure as drawn. Bridge positions count the residues as written; N and C are the ends. Square brackets hold non-standard residues; d marks the D form. Peptide text beside a SMILES is read from it. Phe(4-tBu) = CC(C)(C)c1ccc(C[C@H](N)C(=O)O)cc1; S5 = C=CCCC[C@](C)(N)C(=O)O; Dab = NCC[C@H](N)C(=O)O; Dap = NC[C@H](N)C(=O)O
What was measured:
[1] = 48 hours cytotoxicity assay (CellTiter-Glo), liver toxicity; type: cell-based; details: human
Method: (§1) Cell culture: RPTEC were maintained in MEM media supplemented with growth factors. HEPG2 cell line was maintained in Eagle's Minimum Essential Medium (EMEM) supplemented with fetal bovine serum to a final concentration of 10%.
48 hours cytotoxicity assay: Cells were plated in a 96-well format, and after 4 hour incubation to allow attachment, serial dilutions of StAMPs from a 5 mg/mL water stock, or vehicle, were then added to the cells in a final volume of 100 μl. After incubating at 37° C. for 48 hours, 100 μl of CellTiter-Glo® reagent was added to the cells, and the plates were incubated 10 minutes at room temperature. Luminescence was then measured on a microplate reader.
(§2) Renal toxicity was measured after 90 minutes of incubation, while liver toxicity was measured after 48 hours of incubation with StAMPs. N/A=not tested.

[2] = 90 minute cytotoxicity assay (LDH release), renal toxicity; type: cell-based; details: human
Method: as §1
90 minute cytotoxicity assay: Cells were plated in a 96-well format, and after overnight incubation, media was replaced with fresh media. Serial dilutions of StAMPs from a 5 mg/mL water stock, or vehicle, were added to the cells in a final volume of 100 μl. After incubating at 37° C. for 90 min, 50 μl of cell culture media was transferred to a clear 96-well plate, incubated with 50 μl of lactate dehydrogenase (LDH) assay reagent for 10 min, and absorbance measured at 490 nm on a microplate reader.
as §2

SMILES | IC50 at 48 hours [1] [µg/mL] | IC50 at 90 min [2] [µg/mL]
CC[C@H](C)[C@H](NC(=O)[C@H](CCCCN)NC(=O)[C@H](CCCCN)NC(=O)CNC(=O)[C@H](CCCCN)NC(=O)[C@]1(C)CCCC=CCCC[C@](C)(NC(=O)CN)C(=O)N[C@@H](Cc2ccccc2)C(=O)N[C@@H](CCCCN)C(=O)N[C@@H](CCCCN)C(=O)N1)C(=O)N[C@@H](CCCCN)C(=O)N[C@@H](CC(N)=O)C(=O)N[C@@H](CC(C)C)C(=O)N[C@@]1(C)CCCC=CCCC[C@@](C)(C(=O)N[C@@H](CCCCN)C(=O)NCC(N)=O)NC(=O)CNC(=O)[C@H](CO)NC(=O)[C@H]([C@@H](C)CC)NC1=O [compound 26] (H-G[S5]FKK[S5]KGKKIKNL[S5]ISG[S5]KG-NH2; staple 2-6, 15-19) | 27 (≈ 11.6 µM) | 32 (≈ 13.7 µM)
CC[C@H](C)[C@H](NC(=O)CN)C(=O)N[C@@H](Cc1ccccc1)C(=O)N[C@@H](CO)C(=O)N[C@@H](CCCCN)C(=O)N[C@@H](CC(C)C)C(=O)N[C@@]1(C)CCCC=CCCC[C@@](C)(C(=O)N[C@@H](CCCCN)C(=O)N[C@@H](CC(N)=O)C(=O)N[C@@H](CC(C)C)C(=O)N[C@@H](CC(C)C)C(=O)N[C@H](C(=O)N[C@@H](CO)C(=O)NCC(=O)N[C@@H](CC(C)C)C(=O)N[C@@H](CCCCN)C(=O)NCC(N)=O)[C@@H](C)CC)NC(=O)[C@H](CCCCN)NC(=O)[C@H](CCCCN)NC(=O)CNC1=O [compound 40] (H-GIFSKL[S5]GKK[S5]KNLLISGLKG-NH2; staple 7-11) | 17 (≈ 7.55 µM) | 11 (≈ 4.89 µM)
CC[C@H](C)[C@H](NC(=O)[C@H](CCCCN)NC(=O)[C@H](CCCCN)NC(=O)CNC(=O)[C@H](CCCCN)NC(=O)[C@]1(C)CCCC=CCCC[C@](C)(NC(=O)CN)C(=O)N[C@@H](Cc2ccccc2)C(=O)N[C@@H](CO)C(=O)N[C@@H](CCCCN)C(=O)N1)C(=O)N[C@@H](CCCCN)C(=O)N[C@@H](CCCCN)C(=O)N[C@@H](CC(C)C)C(=O)N[C@@]1(C)CCCC=CCCC[C@@](C)(C(=O)N[C@@H](CCCCN)C(=O)NCC(N)=O)NC(=O)CNC(=O)[C@H](CO)NC(=O)[C@H]([C@@H](C)CC)NC1=O [compound 29] (H-G[S5]FSK[S5]KGKKIKKL[S5]ISG[S5]KG-NH2; staple 2-6, 15-19) | 22 (≈ 9.55 µM) | 27 (≈ 11.7 µM)
CC[C@H](C)[C@H](NC(=O)[C@H](CCCCN)NC(=O)[C@H](CCCCN)NC(=O)CNC(=O)[C@H](CCCCN)NC(=O)[C@]1(C)CCCC=CCCC[C@](C)(NC(=O)CN)C(=O)N[C@@H](Cc2ccccc2)C(=O)N[C@@H](CO)C(=O)N[C@@H](CCCCN)C(=O)N1)C(=O)N[C@@H](CCCCN)C(=O)N[C@@H](CC(N)=O)C(=O)N[C@@H](CC(C)C)C(=O)N[C@@H](CC(C)C)C(=O)N[C@@]1(C)CCCC=CCCC[C@@](C)(C(=O)NCC(N)=O)NC(=O)[C@H](CC(C)C)NC(=O)CNC(=O)[C@H](CO)NC1=O [compound 36] (H-G[S5]FSK[S5]KGKKIKNLL[S5]SGL[S5]G-NH2; staple 2-6, 16-20) | 67 (≈ 29.5 µM) | 63 (≈ 27.7 µM)
CC[C@H](C)[C@H](NC(=O)[C@H](CCCCN)NC(=O)[C@H](CCCCN)NC(=O)CNC(=O)[C@H](CCCCN)NC(=O)[C@]1(C)CCCC=CCCC[C@](C)(NC(=O)CN)C(=O)N[C@@H](Cc2ccccc2)C(=O)N[C@@H](CO)C(=O)N[C@@H](CCCCN)C(=O)N1)C(=O)N[C@@H](CCCCN)C(=O)N[C@@H](CC(N)=O)C(=O)N[C@@H](CC(C)C)C(=O)N[C@@H](CC(C)C)C(=O)N[C@@]1(C)CCCC=CCCC[C@@](C)(C(=O)NCC(N)=O)NC(=O)[C@H](CCCCN)NC(=O)CNC(=O)[C@H](CO)NC1=O [compound 37] (H-G[S5]FSK[S5]KGKKIKNLL[S5]SGK[S5]G-NH2; staple 2-6, 16-20) | > 200 | > 200
CC[C@H](C)[C@H](NC(=O)[C@H](CCCCN)NC(=O)[C@H](CCCCN)NC(=O)CNC(=O)[C@H](CCCCN)NC(=O)[C@]1(C)CCCC=CCCC[C@](C)(NC(=O)CN)C(=O)N[C@@H](CCCCN)C(=O)N[C@@H](CO)C(=O)N[C@@H](CCCCN)C(=O)N1)C(=O)N[C@@H](CCCCN)C(=O)N[C@@H](CC(N)=O)C(=O)N[C@@H](Cc1ccc(C(C)(C)C)cc1)C(=O)N[C@@]1(C)CCCC=CCCC[C@@](C)(C(=O)N[C@@H](CCCCN)C(=O)N[C@@H](CC(N)=O)C(N)=O)NC(=O)CNC(=O)[C@H](CO)NC(=O)[C@H]([C@@H](C)CC)NC1=O [compound 19] (H-G[S5]KSK[S5]KGKKIKN[Phe(4-tBu)][S5]ISG[S5]KN-NH2; staple 2-6, 15-19) | 23 (≈ 9.51 µM) | 68 (≈ 28.1 µM)
CC[C@H](C)[C@@H]1NC(=O)[C@@](C)(NC(=O)[C@H](CC(C)C)NC(=O)[C@H](CC(N)=O)NC(=O)[C@H](CCCCN)NC(=O)[C@@H](NC(=O)[C@H](CCCCN)NC(=O)[C@H](CCCCN)NC(=O)CNC(=O)[C@H](CCCCN)NC(=O)[C@]2(C)CCCC=CCCC[C@](C)(NC(=O)CN)C(=O)N[C@@H](CCCCN)C(=O)N[C@@H](CO)C(=O)N[C@@H](CCCCN)C(=O)N2)C(C)C)CCCC=CCCC[C@@](C)(C(=O)N[C@@H](CCCCN)C(=O)NCC(N)=O)NC(=O)CNC(=O)[C@H](CO)NC1=O [compound 8] (H-G[S5]KSK[S5]KGKKVKNL[S5]ISG[S5]KG-NH2; staple 2-6, 15-19) | > 200 | > 200
CC[C@H](C)[C@H](NC(=O)[C@H](CCCCN)NC(=O)[C@H](CCCCN)NC(=O)CNC(=O)[C@H](CCCCN)NC(=O)[C@]1(C)CCCC=CCCC[C@](C)(NC(=O)CN)C(=O)N[C@@H](CCCCN)C(=O)N[C@@H](C(C)C)C(=O)N[C@@H](CCCCN)C(=O)N1)C(=O)N[C@@H](CCCCN)C(=O)N[C@@H](CC(N)=O)C(=O)N[C@@H](CC(C)C)C(=O)N[C@@]1(C)CCCC=CCCC[C@@](C)(C(=O)N[C@@H](CCCCN)C(=O)NCC(N)=O)NC(=O)CNC(=O)[C@H](CO)NC(=O)[C@H]([C@@H](C)CC)NC1=O [compound 6] (H-G[S5]KVK[S5]KGKKIKNL[S5]ISG[S5]KG-NH2; staple 2-6, 15-19) | 200 (≈ 87.6 µM) | 215 (≈ 94.2 µM)
CC[C@H](C)[C@H](NC(=O)[C@H](CCN)NC(=O)[C@H](CCN)NC(=O)CNC(=O)[C@H](CCN)NC(=O)[C@]1(C)CCCC=CCCC[C@](C)(NC(=O)CN)C(=O)N[C@@H](Cc2ccccc2)C(=O)N[C@@H](CO)C(=O)N[C@@H](CCN)C(=O)N1)C(=O)N[C@@H](CCN)C(=O)N[C@@H](CC(N)=O)C(=O)N[C@@H](CC(C)C)C(=O)N[C@@]1(C)CCCC=CCCC[C@@](C)(C(=O)N[C@@H](CCN)C(=O)NCC(N)=O)NC(=O)CNC(=O)[C@H](CO)NC(=O)[C@H]([C@@H](C)CC)NC1=O [compound 14] (H-G[S5]FS[Dab][S5][Dab]G[Dab][Dab]I[Dab]NL[S5]ISG[S5][Dab]G-NH2; staple 2-6, 15-19) | ~150 (≈ 70.7 µM) | 40 (≈ 18.9 µM)
CC[C@H](C)[C@H](NC(=O)[C@H](CCCCN)NC(=O)[C@H](CCCCN)NC(=O)CNC(=O)[C@H](CCCCN)NC(=O)[C@]1(C)CCCC=CCCC[C@](C)(NC(=O)CN)C(=O)N[C@@H](CCCCN)C(=O)N[C@@H](CO)C(=O)N[C@@H](CCCCN)C(=O)N1)C(=O)N[C@@H](CCCCN)C(=O)N[C@@H](CC(N)=O)C(=O)N[C@@H](CC(C)C)C(=O)N[C@@]1(C)CCCC=CCCC[C@@](C)(C(=O)N[C@@H](CCCCN)C(=O)N[C@@H](CC(N)=O)C(N)=O)NC(=O)CNC(=O)[C@H](CO)NC(=O)[C@H](Cc2ccc(C(C)(C)C)cc2)NC1=O [compound 20] (H-G[S5]KSK[S5]KGKKIKNL[S5][Phe(4-tBu)]SG[S5]KN-NH2; staple 2-6, 15-19) | 29 (≈ 12 µM) | 46 (≈ 19 µM)
CC[C@H](C)[C@H](NC(=O)[C@H](CCCCN)NC(=O)[C@H](CCCCN)NC(=O)CNC(=O)[C@H](CCCCN)NC(=O)[C@]1(C)CCCC=CCCC[C@](C)(NC(=O)CN)C(=O)N[C@@H](Cc2ccccc2)C(=O)N[C@@H](CO)C(=O)N[C@@H](CCCCN)C(=O)N1)C(=O)N[C@@H](CCCCN)C(=O)N[C@@H](CC(N)=O)C(=O)N[C@@H](CCCCN)C(=O)N[C@@]1(C)CCCC=CCCC[C@@](C)(C(=O)N[C@@H](CCCCN)C(=O)NCC(N)=O)NC(=O)CNC(=O)[C@H](CO)NC(=O)[C@H]([C@@H](C)CC)NC1=O [compound 30] (H-G[S5]FSK[S5]KGKKIKNK[S5]ISG[S5]KG-NH2; staple 2-6, 15-19) | > 200 | > 200
CC[C@H](C)[C@H](NC(=O)[C@H](CN)NC(=O)[C@H](CN)NC(=O)CNC(=O)[C@H](CN)NC(=O)[C@]1(C)CCCC=CCCC[C@](C)(NC(=O)CN)C(=O)N[C@@H](Cc2ccccc2)C(=O)N[C@@H](CO)C(=O)N[C@@H](CN)C(=O)N1)C(=O)N[C@@H](CN)C(=O)N[C@@H](CC(N)=O)C(=O)N[C@@H](CC(C)C)C(=O)N[C@@]1(C)CCCC=CCCC[C@@](C)(C(=O)N[C@@H](CN)C(=O)NCC(N)=O)NC(=O)CNC(=O)[C@H](CO)NC(=O)[C@H]([C@@H](C)CC)NC1=O [compound 16] (H-G[S5]FS[Dap][S5][Dap]G[Dap][Dap]I[Dap]NL[S5]ISG[S5][Dap]G-NH2; staple 2-6, 15-19) | ~200 (≈ 98.2 µM) | > 200
CC[C@H](C)[C@H](NC(=O)[C@H](CCCCN)NC(=O)[C@H](CCCCN)NC(=O)CNC(=O)[C@H](C)NC(=O)[C@]1(C)CCCC=CCCC[C@](C)(NC(=O)CN)C(=O)N[C@@H](CCCCN)C(=O)N[C@@H](CO)C(=O)N[C@@H](CCCCN)C(=O)N1)C(=O)N[C@@H](CCCCN)C(=O)N[C@@H](CC(N)=O)C(=O)N[C@@H](CC(C)C)C(=O)N[C@@]1(C)CCCC=CCCC[C@@](C)(C(=O)N[C@@H](CCCCN)C(=O)N[C@@H](CC(N)=O)C(N)=O)NC(=O)CNC(=O)[C@H](CO)NC(=O)[C@H]([C@@H](C)CC)NC1=O [compound 11] (H-G[S5]KSK[S5]AGKKIKNL[S5]ISG[S5]KN-NH2; staple 2-6, 15-19) | 125 (≈ 55 µM) | 186 (≈ 81.9 µM)
